Results: patent US4801697A, “Physiologically active substance TPI and production thereof” (Toyo Jozo Kabushiki Kaisha, priority 1985, dated 1989)
In brackets after ≈: the same amount, converted by molar mass.

Tests used:
[1] = test system: bovine heart PDE; assay: bovine heart PDE inhibitory action (5'-AMP produced from c-AMP measured by HPLC); type: biochemical; conditions: 0.4 mM c-AMP, 30 μg protein PDE, pH 7.5, 30° C., 30 minutes
Protocol: 40 mM Tris-HCl buffer solution (pH 7.5), 2 mM magnesium chloride, 0.4 mM c-AMP, PDE (30 μg protein, Boehringer Mannheim Co.) and TPI are combined to form a reaction mixture (1.0 ml) and the same is incubated at 30° C. for 30 minutes.

[2] = Solubility; type: physicochemical; conditions: for Solubility: insoluble: hexane, benzene and petroleum ether; for Solubility: soluble: lower alcohol such as methanol, ethanol and butanol, ethyl acetate, dimethylsulfoxide, aqueous alkali
[3] = test system: mice; assay: acute toxicity, intraperitoneal injection in mice; type: in vivo; conditions: 100 mg/kg intraperitoneally

| Structure (SMILES) | IC50 concentration [1] | Solubility: insoluble [2] | Solubility: soluble [2] | deaths [3] | Solubility: soluble ([2]; chloroform) |
| --- | --- | --- | --- | --- | --- |
| CCCCCCCc1cc(OC(=O)c2c(CCCCCCC)cc(O)cc2O[C@@H]2O[C@H](COC(C)=O)[C@H](O)[C@H](O)[C@H]2O)cc(O)c1C(=O)O [TPI-4] | 3.5 µg/mL (≈ 5.07 µM) | Insoluble | Soluble | – | – |
| COC(=O)C1=C(C)NC(C)=C(C(=O)OCCN(C)Cc2ccccc2)C1c1cccc([N+](=O)[O-])c1 (stereo not shown) [Nicardipine, nicardipine, reference compound] | 6.0 µg/mL (≈ 12.5 µM) | – | – | – | – |
| CCCCCCCc1cc(OC(=O)c2c(CCCCCCC)cc(O)cc2O[C@@H]2O[C@H](CO)[C@@H](O)[C@H](O)[C@H]2O)cc(O)c1C(=O)O [TPI-1] | 2.8 µg/mL (≈ 4.32 µM) | Insoluble | Soluble | No deaths occurred | – |
| Cn1c(=O)c2[nH]cnc2n(C)c1=O [Teophyllin, theophyllin, reference compound] | 470 µg/mL (≈ 2610 µM) | – | – | – | – |
| COc1ccc(Cc2nccc3cc(OC)c(OC)cc23)cc1OC [Papaverine, papaverine, reference compound] | 25 µg/mL (≈ 73.7 µM) | – | – | – | – |
| CCCCCCCc1cc(OC(=O)c2c(O)cc(O)cc2CCCCCCC)cc(O)c1C(=O)O [TPI-5] | 2.3 µg/mL (≈ 4.73 µM) | Insoluble | – | – | Soluble |
| CCCCCCCc1cc(OC(=O)c2c(CCCCCCC)cc(O)cc2O[C@@H]2O[C@H](COC(C)=O)[C@@H](O)[C@H](O)[C@H]2O)cc(O)c1C(=O)O [TPI-3] | 2.8 µg/mL (≈ 4.05 µM) | Insoluble | Soluble | – | – |
| CCCCCCCc1cc(OC(=O)c2c(CCCCCCC)cc(O)cc2O[C@@H]2O[C@H](CO)[C@H](O)[C@H](O)[C@H]2O)cc(O)c1C(=O)O [TPI-2] | 5.4 µg/mL (≈ 8.32 µM) | Insoluble | Soluble | – | – |
